In patent publication US9562031B1, “Phenethyldihydrobenzodioxolones and methods of use” (Sequoia Sciences, Inc., priority 2015, dated 2017) one finds IC50 data, which are given here for two molecules.

One experiment relates to MES-SA/Dx5 cells. Nature of the experiment: antiproliferation assay, MES-SA/Dx5. Format: cell-based. As to conditions: Homo sapiens. On the procedure:
For the antiproliferation assay, NCI-H460 (large cell lung carcinoma) or M14 (amelanotic melanoma) cells were grown in RPMI-1640 with 10% FBS supplemented with L-glutamine and HEPES. Cells were seeded into 96-well plates at 5×10^2 to 5×10^4 cells/well and allowed to adhere overnight; the medium was then removed. A stock solution of test compound in DMSO was diluted in medium to generate a series of working solutions. Aliquots (100 μl) of the working solutions were then added to the appropriate test wells to expose cells to the final concentrations of compound in a total volume of 100 μl. Seven different concentrations were tested, with 2-5 wells per concentration. Camptothecin was used as a positive control; wells containing vehicle without compound were used as negative controls. Plates were kept for 72 h in a 37° C., 5% CO2 incubator. After incubation, viable cells were detected with the CELLTITER 96 AQueous Non-Radioactive Cell Proliferation Assay (Promega), and IC50 values were determined using GraphPad Prism 5 software.
Antiproliferation of several of the active compounds was tested against additional cell lines.
Compound 4 was tested for antiproliferation activity against several paclitaxel-resistant human cancer cell lines.

The test system of the next experiment is NCI-H23 cells. The experiment can be described thus: NCI-60 panel antiproliferation, NCI-H23. It is filed as cell-based, human. To be noted: Homo sapiens, NCI 60-cell panel. The method, then: Bifidenone and Compound 37 were tested for antiproliferation activity against the NCI-60 panel of cancer cell lines. COMPARE analysis was then conducted to compare the activity “fingerprint” of bifidenone to those of known classes of compounds (Zhou, B.-N., Hoch, J. M., Johnson, R. K., Mattern, M. R., Eng, W.-K., Ma, J., Hecht, S. M., Newman, D. J., Kingston, D. G. I., 2000. Use of COMPARE Analysis to Discover New Natural Product Drugs: Isolation of Camptothecin and 9-Methoxycamptothecin from a New Source. Journal of Natural Products 63, 1273-1276.).

In the case of `C=CC[C@H]1C[C@]2([C@H](C)Cc3cc(O)c(OC)cc3F)OCOC2=CC1=O` (relative stereo) [Compound 4, 6-allyl-7a-(1-(2-fluoro-5-hydroxy-4-methoxyphenyl)propan-2-yl)-7,7a-dihydrobenzo[d][1,3]dioxol-5(6H)-one], the IC50 (commonly the point on the concentration scale where inhibition reaches its midpoint) in the experiment with MES-SA/Dx5 cells (MES-SA/Dx5, MES-SA/Dx5) stood at 13 nM; with MES-SA/Dx5 cells (MES-SA/Dx5, paclitaxel-resistant MES-SA/Dx5), 14 nM. Turning to `C=CC[C@H]1C[C@]2([C@@H](C)Cc3ccc(OC)c(F)c3)OCOC2=CC1=O` [Compound 37, (6S,7aR)-6-allyl-7a-((S)-1-(3-fluoro-4-methoxyphenyl)propan-2-yl)-7,7a-dihydrobenzo[d][1,3]dioxol-5(6H)-one], in the experiment with NCI-H23 cells, the IC50 is 123 nM.
